Results published in ChEMBL document CHEMBL5230155, “Recent contributions of quinolines to antimalarial and anticancer drug discovery research” (Eur J Med Chem, 2021).
One block for each compound: values may come before it.

Tests used:
[1] = system: MCF7; assay: Antiproliferative activity against human MCF7 cells; type: functional, cell-based; details: Homo sapiens, MCF7
[2] = system: G-361; assay: Antiproliferative activity against human G-361 cells; type: functional, cell-based; details: read-out: IC50
[3] = biological target: Alkaline phosphatase, germ cell type (Homo sapiens, UniProt P10696); assay: Inhibition of human germ cell alkaline phosphatase
Alkaline phosphatase, germ cell type, sequence (P10696 whole entry): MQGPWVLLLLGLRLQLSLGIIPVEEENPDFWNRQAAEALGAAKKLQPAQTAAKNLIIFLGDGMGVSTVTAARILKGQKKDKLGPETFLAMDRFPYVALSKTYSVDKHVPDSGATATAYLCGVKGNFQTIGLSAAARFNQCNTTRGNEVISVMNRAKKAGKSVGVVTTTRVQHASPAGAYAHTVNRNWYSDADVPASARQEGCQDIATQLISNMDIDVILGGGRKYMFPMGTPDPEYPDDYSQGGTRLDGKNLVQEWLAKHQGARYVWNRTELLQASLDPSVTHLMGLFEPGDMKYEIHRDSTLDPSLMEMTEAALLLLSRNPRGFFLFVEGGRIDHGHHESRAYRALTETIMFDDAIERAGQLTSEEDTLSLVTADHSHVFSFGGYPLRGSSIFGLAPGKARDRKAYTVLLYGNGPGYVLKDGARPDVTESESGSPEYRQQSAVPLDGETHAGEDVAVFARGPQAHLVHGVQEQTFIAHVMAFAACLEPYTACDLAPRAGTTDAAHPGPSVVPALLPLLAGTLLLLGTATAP

[4] = system: A-375; assay: Antiproliferative activity against human A-375 cells; type: functional, cell-based
[5] = system: NCI-H460; assay: Antiproliferative activity against human NCI-H460 cells; type: functional, cell-based
[6] = system: HT-29; assay: Antiproliferative activity against human HT-29 cells; type: functional, cell-based
[7] = system: MIA PaCa-2; assay: Antiproliferative activity against human MIA PaCa-2 cells; type: functional, cell-based
[8] = system: PANC-1; assay: Antiproliferative activity against human PANC-1 cells; type: functional, cell-based
[9] = biological target: Cathepsin B (Homo sapiens) (UniProt P07858); assay: Inhibition of human cathepsin B endopeptidase activity at 50 uM relative to control
[10] = system: Plasmodium berghei; assay: Antiplasmodial activity against Plasmodium berghei ANKA infected in mouse assessed as reduction in parasitaemia at 20 mg/kg/day, ip administered for 4 days; type: functional; set-up: scale not given: the % may be the effect or the level left; details: time 4 day
[11] = system: Plasmodium berghei; assay: Antimalarial activity against Plasmodium berghei ANKA infected in mouse assessed increase in survival time at 20 mg/kg/day, ip for 4 days; type: functional; details: time 4 day
[12] = system: HeLa; assay: Cytotoxicity against human HeLa cells at 2.5 uM; type: functional
[13] = system: HeLa; assay: Antiproliferative activity against human HeLa cells; type: functional, cell-based
[14] = system: KG-1a; assay: Antiproliferative activity against human KG-1a cells; type: functional, cell-based
[15] = system: MDA-MB-231; assay: Antiproliferative activity against human MDA-MB-231 cells; type: functional, cell-based
[16] = system: Leukemia cell; assay: Antiproliferative activity against human Leukemia cells; type: functional
[17] = biological target: Hepatocyte growth factor receptor (Homo sapiens, UniProt P08581); assay: Inhibition of c-Met (unknown origin)
Hepatocyte growth factor receptor, sequence (P08581 whole entry): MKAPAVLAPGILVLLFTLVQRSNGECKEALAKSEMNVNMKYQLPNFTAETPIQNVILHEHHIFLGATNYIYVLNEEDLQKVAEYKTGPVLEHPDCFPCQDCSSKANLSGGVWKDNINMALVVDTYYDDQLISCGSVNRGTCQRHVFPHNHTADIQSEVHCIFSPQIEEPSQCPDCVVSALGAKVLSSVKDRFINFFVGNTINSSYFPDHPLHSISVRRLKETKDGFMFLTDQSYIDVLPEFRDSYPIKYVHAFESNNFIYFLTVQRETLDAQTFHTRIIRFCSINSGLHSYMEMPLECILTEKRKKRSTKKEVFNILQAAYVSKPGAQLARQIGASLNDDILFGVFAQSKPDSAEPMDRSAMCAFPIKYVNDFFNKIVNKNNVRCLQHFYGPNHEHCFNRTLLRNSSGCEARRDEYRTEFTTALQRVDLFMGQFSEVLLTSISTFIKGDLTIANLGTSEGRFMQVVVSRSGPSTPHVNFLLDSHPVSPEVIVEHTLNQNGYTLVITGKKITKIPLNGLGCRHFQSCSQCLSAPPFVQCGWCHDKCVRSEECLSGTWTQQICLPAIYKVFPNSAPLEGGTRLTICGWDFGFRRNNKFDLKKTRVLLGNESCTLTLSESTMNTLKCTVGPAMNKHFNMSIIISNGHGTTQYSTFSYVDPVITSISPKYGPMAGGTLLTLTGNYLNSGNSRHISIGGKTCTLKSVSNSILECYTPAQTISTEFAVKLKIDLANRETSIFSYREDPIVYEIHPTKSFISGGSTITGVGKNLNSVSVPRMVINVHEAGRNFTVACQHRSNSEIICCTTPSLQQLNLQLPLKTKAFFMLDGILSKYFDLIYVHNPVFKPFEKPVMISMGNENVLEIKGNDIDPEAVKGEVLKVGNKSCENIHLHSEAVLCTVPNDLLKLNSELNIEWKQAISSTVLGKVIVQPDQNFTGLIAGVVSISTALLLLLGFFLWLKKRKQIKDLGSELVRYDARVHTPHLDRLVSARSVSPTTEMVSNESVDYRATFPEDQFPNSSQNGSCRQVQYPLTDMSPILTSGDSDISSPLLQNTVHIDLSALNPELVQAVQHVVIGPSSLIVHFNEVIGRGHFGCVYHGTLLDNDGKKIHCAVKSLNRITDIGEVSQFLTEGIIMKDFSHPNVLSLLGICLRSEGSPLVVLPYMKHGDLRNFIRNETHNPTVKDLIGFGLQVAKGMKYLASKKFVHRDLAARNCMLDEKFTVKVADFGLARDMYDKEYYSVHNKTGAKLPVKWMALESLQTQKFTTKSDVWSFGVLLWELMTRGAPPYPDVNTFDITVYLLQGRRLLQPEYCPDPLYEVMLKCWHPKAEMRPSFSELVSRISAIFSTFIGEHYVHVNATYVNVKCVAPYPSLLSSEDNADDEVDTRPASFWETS

[18] = system: Breast carcinoma cell; assay: Antiproliferative activity against human breast cancer cells; type: functional
[19] = Antiproliferative activity against human CNS cells; type: functional; details: CNS cell
[20] = system: Plasmodium berghei; assay: Antimalarial activity against Plasmodium berghei ANKA infected in mouse assessed increase in survival time (reference value: 6.8 day); type: functional
[21] = system: Hemozoin; assay: Inhibition of beta-hematin formation; details: concentration not given here
[22] = system: Hep 3B2; assay: Cytotoxicity against human Hep3B cells assessed as relative value at 15 uM after 48 hrs by MTS method; type: functional
[23] = Selectivity index, ratio of IC50 for African green monkey Vero cells to IC50 for CQ sensitive Plasmodium falciparum 3D7; type: toxicity; details: read-out: Ratio IC50
[24] = system: Plasmodium falciparum; assay: Antimalarial activity against CQ-resistant Plasmodium falciparum RKL-9; type: functional, organism-based
[25] = Cytotoxicity against african green monkey Vero cells; type: toxicity, cell-based; details: African green monkey (Chlorocebus sabaeus)
[26] = system: Plasmodium falciparum; assay: Antimalarial activity against CQ-sensitive Plasmodium falciparum 3D7; type: functional, organism-based
[27] = system: MV4-11; assay: Antiproliferative activity against human MV4-11 cells; type: functional, cell-based
[28] = biological target: Histone-lysine N-methyltransferase, H3 lysine-79 specific (Homo sapiens, UniProt Q8TEK3); assay: Inhibition of DOT1L (unknown origin)
Histone-lysine N-methyltransferase, H3 lysine-79 specific, sequence (Q8TEK3 whole entry): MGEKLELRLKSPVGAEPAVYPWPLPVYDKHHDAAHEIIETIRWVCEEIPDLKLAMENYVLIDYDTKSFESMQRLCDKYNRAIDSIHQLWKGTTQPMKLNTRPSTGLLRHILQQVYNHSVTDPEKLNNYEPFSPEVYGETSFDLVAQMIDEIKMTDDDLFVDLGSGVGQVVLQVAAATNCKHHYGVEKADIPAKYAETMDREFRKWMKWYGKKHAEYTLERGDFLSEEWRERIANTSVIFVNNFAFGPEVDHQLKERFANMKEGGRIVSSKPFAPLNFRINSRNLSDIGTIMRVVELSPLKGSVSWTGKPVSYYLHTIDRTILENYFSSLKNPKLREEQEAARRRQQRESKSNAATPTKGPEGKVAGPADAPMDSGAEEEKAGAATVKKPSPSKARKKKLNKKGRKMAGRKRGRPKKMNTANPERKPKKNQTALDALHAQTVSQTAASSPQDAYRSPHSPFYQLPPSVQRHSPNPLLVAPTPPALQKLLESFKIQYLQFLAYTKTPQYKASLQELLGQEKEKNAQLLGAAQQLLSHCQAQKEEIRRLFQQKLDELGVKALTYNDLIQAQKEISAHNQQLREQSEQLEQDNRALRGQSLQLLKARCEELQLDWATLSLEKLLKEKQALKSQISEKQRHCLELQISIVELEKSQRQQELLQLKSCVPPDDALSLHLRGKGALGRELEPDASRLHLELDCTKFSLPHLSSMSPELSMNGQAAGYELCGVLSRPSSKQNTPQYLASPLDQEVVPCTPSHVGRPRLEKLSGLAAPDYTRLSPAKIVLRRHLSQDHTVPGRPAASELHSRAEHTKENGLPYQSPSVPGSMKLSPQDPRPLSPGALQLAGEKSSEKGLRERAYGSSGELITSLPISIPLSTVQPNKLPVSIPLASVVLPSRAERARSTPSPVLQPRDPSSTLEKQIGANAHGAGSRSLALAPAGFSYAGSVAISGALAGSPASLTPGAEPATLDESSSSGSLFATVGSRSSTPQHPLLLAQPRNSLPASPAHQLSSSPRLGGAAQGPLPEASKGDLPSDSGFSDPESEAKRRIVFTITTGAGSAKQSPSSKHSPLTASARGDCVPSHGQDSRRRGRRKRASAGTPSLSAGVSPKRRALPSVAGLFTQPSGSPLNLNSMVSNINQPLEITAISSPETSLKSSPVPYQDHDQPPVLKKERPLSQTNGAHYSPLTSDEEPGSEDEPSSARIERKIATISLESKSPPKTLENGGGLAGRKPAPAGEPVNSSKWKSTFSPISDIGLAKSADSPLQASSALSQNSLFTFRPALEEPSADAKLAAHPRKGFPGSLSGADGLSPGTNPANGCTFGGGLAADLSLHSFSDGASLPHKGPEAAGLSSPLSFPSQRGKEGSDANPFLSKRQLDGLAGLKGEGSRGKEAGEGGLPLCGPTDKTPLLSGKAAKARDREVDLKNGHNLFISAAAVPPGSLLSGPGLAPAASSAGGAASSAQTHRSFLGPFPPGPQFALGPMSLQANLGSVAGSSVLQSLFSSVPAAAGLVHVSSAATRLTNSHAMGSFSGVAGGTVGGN

[29] = system: Hemozoin; assay: Inhibition of beta-hematin formation relative to control; details: concentration not given here
[30] = system: Plasmodium falciparum; assay: Antimalarial activity against CQ-sensitive Plasmodium falciparum D6; type: functional, organism-based
[31] = system: Plasmodium falciparum; assay: Antimalarial activity against CQ-resistant Plasmodium falciparum W2; type: functional, organism-based
[32] = system: Plasmodium berghei; assay: Antiplasmodial activity against Plasmodium berghei infected in mouse assessed as increase in mean survival time at 100 mg/kg, po administered for 3 days (reference value: 7.6 day); type: functional; details: time 3 day
[33] = biological target: Epidermal growth factor receptor (Homo sapiens, UniProt P00533)
Epidermal growth factor receptor, sequence (P00533 whole entry): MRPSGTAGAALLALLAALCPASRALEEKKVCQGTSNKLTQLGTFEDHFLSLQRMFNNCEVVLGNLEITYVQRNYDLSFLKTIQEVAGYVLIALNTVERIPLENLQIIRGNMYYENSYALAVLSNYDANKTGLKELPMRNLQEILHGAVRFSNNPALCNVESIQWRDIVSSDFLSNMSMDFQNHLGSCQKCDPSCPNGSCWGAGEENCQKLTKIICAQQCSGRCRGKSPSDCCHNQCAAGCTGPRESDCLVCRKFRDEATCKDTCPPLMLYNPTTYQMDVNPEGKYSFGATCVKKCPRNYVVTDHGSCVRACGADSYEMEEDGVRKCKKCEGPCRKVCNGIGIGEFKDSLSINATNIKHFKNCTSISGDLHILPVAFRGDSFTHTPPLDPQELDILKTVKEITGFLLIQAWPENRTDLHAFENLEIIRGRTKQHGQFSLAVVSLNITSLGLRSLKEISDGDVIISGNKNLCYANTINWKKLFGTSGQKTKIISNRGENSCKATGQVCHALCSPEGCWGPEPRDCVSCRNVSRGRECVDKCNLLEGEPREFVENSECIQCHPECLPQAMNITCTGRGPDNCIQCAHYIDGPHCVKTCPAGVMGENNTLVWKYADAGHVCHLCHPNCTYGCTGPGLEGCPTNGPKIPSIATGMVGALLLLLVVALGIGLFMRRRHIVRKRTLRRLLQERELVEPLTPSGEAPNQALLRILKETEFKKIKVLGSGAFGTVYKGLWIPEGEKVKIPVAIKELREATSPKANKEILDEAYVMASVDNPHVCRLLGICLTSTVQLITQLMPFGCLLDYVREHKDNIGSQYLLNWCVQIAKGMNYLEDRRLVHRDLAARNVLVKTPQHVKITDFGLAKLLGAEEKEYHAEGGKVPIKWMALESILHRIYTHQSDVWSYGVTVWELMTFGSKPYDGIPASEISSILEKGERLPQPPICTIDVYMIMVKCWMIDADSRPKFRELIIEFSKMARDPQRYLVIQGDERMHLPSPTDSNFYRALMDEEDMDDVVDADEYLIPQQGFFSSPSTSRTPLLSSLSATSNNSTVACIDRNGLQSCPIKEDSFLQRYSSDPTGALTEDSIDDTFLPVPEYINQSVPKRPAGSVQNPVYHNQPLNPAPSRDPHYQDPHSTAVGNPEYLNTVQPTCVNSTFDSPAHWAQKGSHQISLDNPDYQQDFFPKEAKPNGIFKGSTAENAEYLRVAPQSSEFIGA

[34] = system: Plasmodium berghei; assay: Antimalarial activity against liver stage Plasmodium berghei; type: functional, organism-based

IC50 [1]: 2070 nM
Structure (SMILES): COc1ccc2ccc(F)c(CC(=O)N/N=C/c3ccc(C(F)(F)F)cc3)c2n1
IC50 [2]: 2070 nM

IC50 [3]: < 75 nM
Structure (SMILES): COc1cc2c(C(=O)Nc3nc4ccccc4s3)cc(O)nc2cc1Cl

IC50 [4]: 1900 nM | IC50 [5]: 1900 nM | IC50 [6]: 1900 nM | IC50 [7]: 1900 nM | IC50 [8]: 1900 nM
Structure (SMILES): CSc1nc2ccccc2cc1/C=C1/C=C(c2ccccc2)NC1=O

inhibition [9]: 27.7%
Structure (SMILES): O=[N+]([O-])c1ccc(O)c2ncccc12

Structure (SMILES): COc1ccc(/C=C/C(=O)c2cccc(Nc3ccnc4cc(Cl)ccc34)c2)cc1OC
Activity [10]: 1.4% | Time [11]: 22.44 days

IC50 [3]: < 75 nM
Structure (SMILES): O=C(Nc1nc2ccccc2s1)c1cc(O)nc2ccc(O)cc12

Structure (SMILES): COc1cc2nc(N3CCCN(C)CC3)nc(NC3CCN(Cc4ccccc4)CC3)c2cc1OC
Activity [12]: 63%

IC50 [13]: 50 nM | IC50 [15]: 540 nM
Structure (SMILES): COc1ccc2nc(-c3ccc(Br)cc3)cc(-c3nnc(Nc4ccc([N+](=O)[O-])cc4)o3)c2c1
IC50 [14]: 1210 nM

GI50 [16]: 290 nM | IC50 [17]: 19 nM | GI50 [18]: 290 nM
Structure (SMILES): COc1cc2nccc(Oc3ccc(NC(=O)C4(C(=O)Nc5ccc(F)cc5)CC4)cc3)c2cc1OC(=O)c1ccc(N)cc1
GI50 [19]: 290 nM

Structure (SMILES): COC(=O)[C@H](Cc1c[nH]c2ccccc12)NC(=O)CSc1ccnc2cc(Cl)ccc12
Time [20]: 24.6 days | inhibition [21]: 61.1%

GI50 [16]: 290 nM | IC50 [17]: 19 nM | GI50 [18]: 290 nM
Structure (SMILES): COc1cc2nccc(Oc3ccc(NC(=O)C4(C(=O)Nc5ccc(F)cc5)CC4)cc3)c2cc1Oc1ccc(N)cn1
GI50 [19]: 290 nM

Structure (SMILES): O=S(=O)(Oc1c(Br)cc(Br)c2cccnc12)c1cccc2cccnc12
fold change (FC) [22]: 0.38

Structure (SMILES): O=C(Cn1cc(COc2ccc(Cl)cc2)nn1)NCCNc1ccnc2cc(Cl)ccc12
selectivity ratio [23]: 714 | IC50 [24]: 75 nM | IC50 [25]: > 5 µM | IC50 [26]: 38.8 nM

IC50 [27]: 1290 nM | IC50 [28]: 3.55 µM
Structure (SMILES): Cc1cc(Nc2ccc3nc(C)cc(N)c3c2)nc(NCCCCCCNC(=O)Nc2cc(C(F)(F)F)cc(C(F)(F)F)c2)n1

inhibition [29]: 61.3%
Structure (SMILES): COc1ccc2nc(Cl)c(/C=C/C(=O)c3ccc(OC)c(OC)c3OC)cc2c1

Structure (SMILES): COC(=O)[C@@H](NC(=O)CSc1ccnc2cc(Cl)ccc12)C(C)C
Time [20]: 24.6 days | inhibition [21]: 61.1%

Structure (SMILES): O=C(Cn1cc(COc2ccc(Br)cc2)nn1)NCCCNc1ccnc2cc(Cl)ccc12
selectivity ratio [23]: 714 | IC50 [24]: 16 nM | IC50 [25]: > 5 µM | IC50 [26]: 38.8 nM

Structure (SMILES): Cc1c(Cl)ccc2cc(/C=C/C(=O)c3ccc(Br)cc3)c(Cl)nc12
IC50 [30]: < 50 nM | IC50 [31]: 38 nM | Time [32]: 11.8 days

IC50 [4]: 1900 nM | IC50 [5]: 1900 nM | IC50 [6]: 1900 nM | IC50 [7]: 1900 nM | IC50 [8]: 1900 nM
Structure (SMILES): COc1nc2ccccc2cc1/C=C1/C=C(c2ccccc2)NC1=O

IC50 [33]: 42.5 nM
Structure (SMILES): COc1ccc2nc(Cl)c(C3CC(c4ccc(C)cc4)=NN3c3nc(C)c(C(=O)Nc4ccccc4)s3)cc2c1 (stereo not given)

IC50 [34]: 5.4 µM | IC50 [26]: 380 nM
Structure (SMILES): COc1cc(C)c2c(Oc3cccc(C(F)(F)F)c3)c(OC)cc(NC(C)CCON)c2n1 (stereo not given)

IC50 [33]: 31.8 nM
Structure (SMILES): COc1ccc2nc(Cl)c(C3CC(c4ccc(C)cc4)=NN3c3nc(-c4ccc(F)cc4)cs3)cc2c1 (stereo not given)

IC50 [4]: 2200 nM | IC50 [5]: 2200 nM | IC50 [6]: 2200 nM | IC50 [8]: 2200 nM
Structure (SMILES): COc1nc2ccc(C)cc2cc1Cc1cc(-c2ccccc2)n[nH]c1=O

Structure (SMILES): O=C(Cn1cc(COc2ccc(Br)cc2)nn1)NCCNc1ccnc2cc(Cl)ccc12
selectivity ratio [23]: 714 | IC50 [24]: 2.94 nM | IC50 [25]: > 5 µM | IC50 [26]: 38.8 nM
